Values joined by “and” are separate entries in the source; they are usually repeats but may differ in a detail not shown here. Equal entries are not always repeated.
Legend:
Assay type in all cases: in vivo
Soybean = experiment: Preliminary greenhouse pot test, seeds soaked in diformylurea solution, root and shoot mass; conditions: seed soak 24 h, 30 days
Experimental: (§1) In a preliminary experiment to determine the agricultural value of the N,N′-diformylurea prepared above, a concentrate was prepared by mixing 200 grams diformylurea and 200 grams formic acid, adjusting the ph to about 5.5 by the addition of potassium hydroxide and adding sufficient water to make 1 liter. […] Low, medium and high dilution aqueous solutions were prepared by diluting, respectively, 0.8 grams, 8.0 grams and 40.0 grams of the concentrate per liter of final solution. […] The foregoing solutions were used to coat corn, soybean, cotton and rice seeds prior to planting. Coating was achieved by soaking the seeds in the foregoing solutions for about 24 hours. Sufficient solution was used to keep the seeds immersed. Control seeds were soaked in water for the same time. Untreated or control seeds, together with seeds treated by the low, medium and high dilution solutions, were planted in 1 gallon greenhouse pots. Six pots were used for each dilution or control with five seeds planted per pot. The plants were thinned to two plants per pot after emergence. The plants were watered and fertilized as required. After 30 days the plants were harvested and the roots and shoots examined. The roots and shoots were weighed separately and the root/shoot ratio determined. The treated plants were generally characterized by both greater root mass and shoot mass when compared to the controls. The root/shoot ratio for most of the treated plants was greater than that for the controls.

Rice [1] = experiment: as above; conditions: seed soak 24 h, 30 days
Experimental: as §1

Cotton = experiment: as above; conditions: seed soak 24 h, 30 days
Experimental: as §1

Corn [2] = experiment: as above; conditions: seed soak 24 h, 30 days
Experimental: as §1

Rice [3] = experiment: Single application to rice at tillering, yield; conditions: 50 grams per acre at tillering
From the text: The reaction products of the present invention, specifically N,N′-diformylurea, have been used to enhance the growth of plants. […] For example, a single application to rice at the rate of 50 grams per acre at tillering has produced a 25 percent increase in yield.

Peanuts = experiment: Greenhouse pot test, foliar treatment 0.01 M diformylurea; conditions: foliar treated, three leaf stage, 30 days
Experimental: (§2) Based upon the foregoing preliminary work, additional experiments to investigate the effect of diformylurea on other plant species was undertaken. These experiments were also designed to compare the effect of treating seeds as described above with foliar treatment. Wheat, corn and peanuts were selected for the next phase of this work. Diformylurea was prepared by reacting formic acid and urea at a molar ratio of 2:1 as described above. An aqueous solution containing diformylurea at a concentration of 0.01 M was prepared. For the seed treatment portion of the experiments, the seeds to be treated were soaked in the foregoing solution for about 24 hours before planting. The control seeds were again soaked in water for the same time. Both control and treated seeds were planted in 1 gallon greenhouse pots. Five seeds were planted in each pot. Each pot was thinned to two plants after germination. For the foliar treatment portion of the experiment, plants grown from untreated seeds were sprayed with a solution containing 0.01 M. diformylurea at the three leaf stage. All plants were watered and fertilized as required. Thirty days after planting, the plants were harvested and the roots and shoots examined. The mass of both the roots and shoots and the total mass of the plant in each pot were determined.

Wheat = experiment: as above; conditions: foliar treated, three leaf stage, 30 days
Experimental: as §2

Corn [4] = experiment: as above; conditions: foliar treated, three leaf stage, 30 days
Experimental: as §2

For `O=CNC(=O)NC=O` [diformylurea, N,N′-diformylurea], the “Root/Shoot Ratio” value (Soybean; Low dilution, 0.0013 M) was 0.93, the “Roots (gm)” value (Soybean; Low dilution, 0.0013 M) was 4.60 gm and the “Shoots (gm)” value (Soybean; Low dilution, 0.0013 M) was 4.90 gm. For the same compound, the “Total (gm)” value (Soybean; Low dilution, 0.0013 M) was 9.50 gm, the “Root/Shoot Ratio” value (Soybean; Medium dilution, 0.013 M) was 1.20 and the “Roots (gm)” value (Soybean; Medium dilution, 0.013 M) was 4.90 gm. For the same compound, the “Shoots (gm)” value (Soybean; Medium dilution, 0.013 M) was 4.10 gm, the “Total (gm)” value (Soybean; Medium dilution, 0.013 M) was 9.00 gm and the “crown roots on plants grown from treated seeds” value (Rice [1]) was “crown roots were noticed”. The “Root/Shoot Ratio” value (Rice [1]; High dilution, 0.068 M) was 2.10, the “Roots (gm)” value (Rice [1]; High dilution, 0.068 M) was 0.82 gm and the “Shoots (gm)” value (Rice [1]; High dilution, 0.068 M) was 0.39 gm. For the same compound, the “Total (gm)” value (Rice [1]; High dilution, 0.068 M) was 1.21 gm, the “Root/Shoot Ratio” value (Rice [1]; Low dilution, 0.0013 M) was 1.78 and the “Roots (gm)” value (Rice [1]; Low dilution, 0.0013 M) was 0.61 gm. For the same compound, the “Shoots (gm)” value (Rice [1]; Low dilution, 0.0013 M) was 0.34 gm, the “Total (gm)” value (Rice [1]; Low dilution, 0.0013 M) was 0.95 gm and the “Root/Shoot Ratio” value (Rice [1]; Medium dilution, 0.013 M) was 1.86. The “Roots (gm)” value (Rice [1]; Medium dilution, 0.013 M) was 3.07 gm, the “Shoots (gm)” value (Rice [1]; Medium dilution, 0.013 M) was 1.84 gm and the “Total (gm)” value (Rice [1]; Medium dilution, 0.013 M) was 4.91 gm. For the same compound, the “Root/Shoot Ratio” value (Cotton; High dilution, 0.068 M) was 0.73, the “Roots (gm)” value (Cotton; High dilution, 0.068 M) was 5.07 gm and the “Shoots (gm)” value (Cotton; High dilution, 0.068 M) was 6.90 gm. For the same compound, the “Total (gm)” value (Cotton; High dilution, 0.068 M) was 11.97 gm, the “Root/Shoot Ratio” value (Cotton; Low dilution, 0.0013 M) was 1.46 and the “Roots (gm)” value (Cotton; Low dilution, 0.0013 M) was 7.85 gm. For the same compound, the “Shoots (gm)” value (Cotton; Low dilution, 0.0013 M) was 5.38 gm, the “Total (gm)” value (Cotton; Low dilution, 0.0013 M) was 13.23 gm and the “Root/Shoot Ratio” value (Cotton; Medium dilution, 0.013 M) was 1.08. For the same compound, the “Roots (gm)” value (Cotton; Medium dilution, 0.013 M) was 4.50 gm, the “Shoots (gm)” value (Cotton; Medium dilution, 0.013 M) was 5.25 gm and the “Total (gm)” value (Cotton; Medium dilution, 0.013 M) was 9.75 gm. For the same compound, the “crown roots on plants grown from treated seeds” value (Corn [2]) was “crown roots were noticed”, the “Root/Shoot Ratio” value (Corn [2]; High dilution, 0.068 M) was 1.09 and the “Roots (gm)” value (Corn [2]; High dilution, 0.068 M) was 9.60 gm. For the same compound, the “Shoots (gm)” value (Corn [2]; High dilution, 0.068 M) was 8.80 gm, the “Total (gm)” value (Corn [2]; High dilution, 0.068 M) was 18.40 gm and the “Root/Shoot Ratio” value (Corn [2]; Low dilution, 0.0013 M) was 1.04. The “Roots (gm)” value (Corn [2]; Low dilution, 0.0013 M) was 9.80 gm, the “Shoots (gm)” value (Corn [2]; Low dilution, 0.0013 M) was 9.40 gm and the “Total (gm)” value (Corn [2]; Low dilution, 0.0013 M) was 19.20 gm. The “Root/Shoot Ratio” value (Corn [2]; Medium dilution, 0.013 M) was 1.08, the “Roots (gm)” value (Corn [2]; Medium dilution, 0.013 M) was 10.40 gm and the “Shoots (gm)” value (Corn [2]; Medium dilution, 0.013 M) was 9.60 gm. The “Total (gm)” value (Corn [2]; Medium dilution, 0.013 M) was 20.00 gm, the increase in yield (Rice [3]) was 25% and the “Percent Change v. Control, Roots” value (Peanuts) was 92%. The “Percent Change v. Control, Shoots” value (Peanuts) was 108%, the “Percent Change v. Control, Total” value (Peanuts) was 100% and the “Root/Shoot Ratio” value (Peanuts) was 1.02. For the same compound, the “Roots (gm), Average” value (Peanuts; average of samples) was 32.74 gm, the “Shoots (gm), Average” value (Peanuts; average of samples) was 32.15 gm and the “Total (gm), Average” value (Peanuts; average of samples) was 64.89 gm. The “Roots (gm)” value (Peanuts; single sample (pot)) was 27.67 gm and 35.04 gm and 37.38 gm and 31.10 gm and 31.69 gm and 33.55 gm, the “Shoots (gm)” value (Peanuts; single sample (pot)) was 28.38 gm and 30.34 gm and 33.84 gm and 32.35 gm and 36.17 gm and 31.82 gm and the “Total (gm)” value (Peanuts; single sample (pot)) was 56.05 gm and 65.38 gm and 71.22 gm and 63.45 gm and 67.86 gm and 65.37 gm. For the same compound, the “Percent Change v. Control, Roots” value (Wheat) was 14%, the “Percent Change v. Control, Shoots” value (Wheat) was 108% and the “Percent Change v. Control, Total” value (Wheat) was 26%. For the same compound, the “Root/Shoot Ratio” value (Wheat) was 4.06, the “Roots (gm), Average” value (Wheat; average of samples) was 23.93 gm and the “Shoots (gm), Average” value (Wheat; average of samples) was 5.89 gm. For the same compound, the “Total (gm), Average” value (Wheat; average of samples) was 29.83 gm, the “Shoots (gm)” value (Wheat; single sample (pot)) was 7.48 gm and 7.53 gm and 4.44 gm and 4.62 gm and 4.00 gm and 7.28 gm and the “Percent Change v. Control, Roots” value (Corn [4]) was 11%. For the same compound, the “Percent Change v. Control, Shoots” value (Corn [4]) was 103%, the “Percent Change v. Control, Total” value (Corn [4]) was 46% and the “Root/Shoot Ratio” value (Corn [4]) was 0.90. The “Roots (gm), Average” value (Corn [4]; average of samples) was 51.38 gm, the “Shoots (gm), Average” value (Corn [4]; average of samples) was 57.31 gm and the “Total (gm), Average” value (Corn [4]; average of samples) was 108.69 gm. For the same compound, the “Roots (gm)” value (Corn [4]; single sample (pot)) was 42.40 gm and 48.44 gm and 52.48 gm and 56.22 gm and 42.18 gm and 66.57 gm, the “Shoots (gm)” value (Corn [4]; single sample (pot)) was 61.80 gm and 46.17 gm and 50.59 gm and 61.12 gm and 67.57 gm and 56.61 gm and the “Total (gm)” value (Corn [4]; single sample (pot)) was 104.20 gm and 84.61 gm and 103.07 gm and 117.34 gm and 109.75 gm and 123.18 gm.

From patent US7022648B2, “Plant seeds treated with N,N′-substituted ureas” (Stoller Enterprises, Inc., priority 1996, dated 2006)
